Results from patent US6355799B1, “Substituted benzene compounds, process for their preparation, and herbicidal and defoliant compositions containing them” (ISK Americas Incorporated, priority 1997, dated 2002).

Legend:
Format in all cases: in vivo
[1] = tested on: upland rice (Oryza sp., var. Tebonnet, RICE); assay: Post-emerge test, crop safety; conditions: post-emerge, 14 days after application, rating scale 0-100
Method in brief: (§1)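 Visual ratings on a 0-100 scale (0 no damage, 100 all plants dead) were taken at 14 days after treatment. Rates of 15-1000 g ai/ha in acetone, 187 l/ha, were sprayed onto soil one day after planting (pre-emerge) or onto 2-3 leaf plants with 0.25% v/v surfactant (post-emerge).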

[2] = tested on: field corn (Zea mays L., var. Dekalb 535, CORN); assay: Post-emerge test, crop safety; conditions: post-emerge, 14 days after application, rating scale 0-100
Method in brief: as §1

[3] = tested on: redroot pigweed (Amaranthus retroflexus, AMARE); assay: Pre-emerge test, greenhouse herbicide activity screening; conditions: for phytotoxicity rating AMARE: pre-emerge, 14 days after application, scale 0-100; for Pre-emerge Herbicidal Activity AMARE: phytotoxicity rating 0-100, 14 days after application
Method in brief: (§2)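 Compounds in acetone were track-sprayed at 15-1000 g ai/ha (187 l/ha) on sandy loam pots: pre-emerge one day after seeding, post-emerge at 2-3 leaf stage with 0.25% v/v non-ionic surfactant. Phytotoxicity was rated 14 days later on a 0 (no damage) to 100 (complete death) scale.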

[4] = tested on: lambsquarters (Chenopodium album, CHEAL); assay: as above; conditions: for phytotoxicity rating CHEAL: pre-emerge, 14 days after application, scale 0-100; for Pre-emerge Herbicidal Activity CHEAL: phytotoxicity rating 0-100, 14 days after application
Method in brief: as §1

[5] = tested on: johnsongrass (Sorghum halepense, SORHA); assay: as above; conditions: for phytotoxicity rating SORHA: pre-emerge, 14 days after application, scale 0-100; for Pre-emerge Herbicidal Activity SORHA: phytotoxicity rating 0-100, 14 days after application
Method in brief: as §1

[6] = tested on: ivyleaf morningglory (Ipomoea hederacea, IPOHE); assay: as above; conditions: for phytotoxicity rating IPOHE: pre-emerge, 14 days after application, scale 0-100; for Pre-emerge Herbicidal Activity IPOHE: phytotoxicity rating 0-100, 14 days after application
Method in brief: as §1

[7] = tested on: green foxtail (Setaria viridis, SETVI); assay: as above; conditions: for phytotoxicity rating SETVI: pre-emerge, 14 days after application, scale 0-100; for Pre-emerge Herbicidal Activity SETVI: phytotoxicity rating 0-100, 14 days after application
Method in brief: as §1

[8] = tested on: velvetleaf (Abutilon theophrasti, ABUTH); assay: as above; conditions: for phytotoxicity rating ABUTH: pre-emerge, 14 days after application, scale 0-100; for Pre-emerge Herbicidal Activity ABUTH: phytotoxicity rating 0-100, 14 days after application
Method in brief: as §1

[9] = tested on: barnyardgrass (Echinochloa crus-galli, ECHCG); assay: as above; conditions: for phytotoxicity rating ECHCG: pre-emerge, 14 days after application, scale 0-100; for Pre-emerge Herbicidal Activity ECHCG: phytotoxicity rating 0-100, 14 days after application
Method in brief: as §1

[10] = tested on: sicklepod (Cassia obtusifolia, CASOB); assay: as above; conditions: for phytotoxicity rating CASOB: pre-emerge, 14 days after application, scale 0-100; for Pre-emerge Herbicidal Activity CASOB: phytotoxicity rating 0-100, 14 days after application
Method in brief: as §1

[11] = tested on: large crabgrass (Digitaria sanguinalis, DIGSA); assay: as above; conditions: for phytotoxicity rating DIGSA: pre-emerge, 14 days after application, scale 0-100; for Pre-emerge Herbicidal Activity DIGSA: phytotoxicity rating 0-100, 14 days after application
Method in brief: as §1

[12] = tested on: upland rice (Oryza sp., var. Tebonnet, RICE); assay: Pre-emerge test, crop safety; conditions: for phytotoxicity rating RICE (crop damage): pre-emerge, 14 days after application, scale 0-100; for Pre-emerge Herbicidal Activity RICE: crop damage rating 0-100, 14 days after application
Method in brief: as §2

[13] = tested on: field corn (Zea mays L., var. Dekalb 535, CORN); assay: Pre-emerge test, crop safety; conditions: for phytotoxicity rating CORN (crop damage): pre-emerge, 14 days after application, scale 0-100; for Pre-emerge Herbicidal Activity CORN: crop damage rating 0-100, 14 days after application
Method in brief: as §2

[14] = tested on: lambsquarters (Chenopodium album, CHEAL); assay: Post-emerge test, greenhouse herbicide activity screening; conditions: post-emerge, 14 days after application, rating scale 0-100
Method in brief: (§3)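 Plants grown in 10 cm pots of sandy loam mix received acetone-dissolved compounds through a moving flat-fan nozzle. Doses ranged from 15 to 1000 g ai/ha. Pre-emerge pots were seeded one day earlier, post-emerge pots 8–21 days earlier. Fourteen days on, each pot was graded 0–100 for damage.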

[15] = tested on: johnsongrass (Sorghum halepense, SORHA); assay: as above; conditions: post-emerge, 14 days after application, rating scale 0-100
Method in brief: as §3

[16] = tested on: ivyleaf morningglory (Ipomoea hederacea, IPOHE); assay: as above; conditions: post-emerge, 14 days after application, rating scale 0-100
Method in brief: as §3

[17] = tested on: green foxtail (Setaria viridis, SETVI); assay: as above; conditions: post-emerge, 14 days after application, rating scale 0-100
Method in brief: as §3

[18] = tested on: redroot pigweed (Amaranthus retroflexus, AMARE); assay: as above; conditions: post-emerge, 14 days after application
Method in brief: as §3

[19] = tested on: velvetleaf (Abutilon theophrasti, ABUTH); assay: as above; conditions: post-emerge, 14 days after application, rating scale 0-100
Method in brief: as §3

[20] = tested on: barnyardgrass (Echinochloa crus-galli, ECHCG); assay: as above; conditions: post-emerge, 14 days after application, rating scale 0-100
Method in brief: as §3

[21] = tested on: sicklepod (Cassia obtusifolia, CASOB); assay: as above; conditions: post-emerge, 14 days after application, rating scale 0-100
Method in brief: as §3

[22] = tested on: large crabgrass (Digitaria sanguinalis, DIGSA); assay: as above; conditions: post-emerge, 14 days after application, rating scale 0-100
Method in brief: as §3

[23] = 250 g ai/ha, rating scale 0-100

COc1c(Cl)cc(F)c(-n2c(=O)cc(C(F)(F)F)n(C)c2=O)c1NC(=O)C=Cc1cccc(Cl)c1 [2-134]
RICE phytotoxicity rating (crop damage) ([1]; 63 g ai/ha): 50 | RICE phytotoxicity rating (crop damage) ([1]; 250 g ai/ha): 80 | CORN phytotoxicity rating (crop damage) ([2]; 63 g ai/ha): 10 | CORN phytotoxicity rating (crop damage) ([2]; 250 g ai/ha): 20 | phytotoxicity rating AMARE ([3]; 63 g ai/ha): 100 | phytotoxicity rating AMARE ([3]; 250 g ai/ha): 100 | phytotoxicity rating CHEAL ([4]; 63 g ai/ha): 100 | phytotoxicity rating CHEAL ([4]; 250 g ai/ha): 100 | phytotoxicity rating SORHA ([5]; 63 g ai/ha): 0 | phytotoxicity rating SORHA ([5]; 250 g ai/ha): 30 | phytotoxicity rating IPOHE ([6]; 63 g ai/ha): 20 | phytotoxicity rating IPOHE ([6]; 250 g ai/ha): 30 | phytotoxicity rating SETVI ([7]; 63 g ai/ha): 35 | phytotoxicity rating SETVI ([7]; 250 g ai/ha): 80 | phytotoxicity rating ABUTH ([8]; 63 g ai/ha): 60 | phytotoxicity rating ABUTH ([8]; 250 g ai/ha): 80 | phytotoxicity rating ECHCG ([9]; 63 g ai/ha): 0 | phytotoxicity rating ECHCG ([9]; 250 g ai/ha): 30 | phytotoxicity rating CASOB ([10]; 63 g ai/ha): 10 | phytotoxicity rating CASOB ([10]; 250 g ai/ha): 30 | phytotoxicity rating DIGSA ([11]; 63 g ai/ha): 20 | phytotoxicity rating DIGSA ([11]; 250 g ai/ha): 90 | phytotoxicity rating RICE (crop damage) ([12]; 63 g ai/ha): 10 | phytotoxicity rating RICE (crop damage) ([12]; 250 g ai/ha): 20 | phytotoxicity rating CORN (crop damage) ([13]; 63 g ai/ha): 0 | phytotoxicity rating CORN (crop damage) ([13]; 250 g ai/ha): 0 | CHEAL phytotoxicity rating ([14]; 63 g ai/ha): 100 | CHEAL phytotoxicity rating ([14]; 250 g ai/ha): 100 | SORHA phytotoxicity rating ([15]; 63 g ai/ha): 10 | SORHA phytotoxicity rating ([15]; 250 g ai/ha): 30 | IPOHE phytotoxicity rating ([16]; 63 g ai/ha): 100 | IPOHE phytotoxicity rating ([16]; 250 g ai/ha): 100 | SETVI phytotoxicity rating ([17]; 63 g ai/ha): 20 | SETVI phytotoxicity rating ([17]; 250 g ai/ha): 60 | AMARE phytotoxicity rating ([18]; 63 g ai/ha, rating scale 0-100): 100 | AMARE phytotoxicity rating [18, 23]: 100 | ABUTH phytotoxicity rating ([19]; 63 g ai/ha): 100 | ABUTH phytotoxicity rating ([19]; 250 g ai/ha): 100 | ECHCG phytotoxicity rating ([20]; 63 g ai/ha): 10 | ECHCG phytotoxicity rating ([20]; 250 g ai/ha): 30 | CASOB phytotoxicity rating ([21]; 63 g ai/ha): 90 | CASOB phytotoxicity rating ([21]; 250 g ai/ha): 100 | DIGSA phytotoxicity rating ([22]; 63 g ai/ha): 0 | DIGSA phytotoxicity rating ([22]; 250 g ai/ha): 30

COc1c(Cl)cc(F)c(-n2c(=O)cc(C(F)(F)F)n(C)c2=O)c1NC(=O)OCc1ccc2ccccc2c1 [4-28]
phytotoxicity rating RICE (crop damage) ([1]; 63 g ai/ha): 10 | phytotoxicity rating RICE (crop damage) ([1]; 250 g ai/ha): 15 | phytotoxicity rating CORN (crop damage) ([2]; 63 g ai/ha): 0 | phytotoxicity rating CORN (crop damage) ([2]; 250 g ai/ha): 5 | Pre-emerge Herbicidal Activity AMARE ([3]; 63 g ai/ha): 40 | Pre-emerge Herbicidal Activity AMARE ([3]; 250 g ai/ha): 70 | Pre-emerge Herbicidal Activity CHEAL ([4]; 63 g ai/ha): 70 | Pre-emerge Herbicidal Activity CHEAL ([4]; 250 g ai/ha): 100 | Pre-emerge Herbicidal Activity SORHA ([5]; 63 g ai/ha): 0 | Pre-emerge Herbicidal Activity SORHA ([5]; 250 g ai/ha): 0 | Pre-emerge Herbicidal Activity IPOHE ([6]; 63 g ai/ha): 0 | Pre-emerge Herbicidal Activity IPOHE ([6]; 250 g ai/ha): 0 | Pre-emerge Herbicidal Activity SETVI ([7]; 63 g ai/ha): 20 | Pre-emerge Herbicidal Activity SETVI ([7]; 250 g ai/ha): 60 | Pre-emerge Herbicidal Activity ABUTH ([8]; 63 g ai/ha): 20 | Pre-emerge Herbicidal Activity ABUTH ([8]; 250 g ai/ha): 60 | Pre-emerge Herbicidal Activity ECHCG ([9]; 63 g ai/ha): 0 | Pre-emerge Herbicidal Activity ECHCG ([9]; 250 g ai/ha): 0 | Pre-emerge Herbicidal Activity CASOB ([10]; 63 g ai/ha): 0 | Pre-emerge Herbicidal Activity CASOB ([10]; 250 g ai/ha): 0 | Pre-emerge Herbicidal Activity DIGSA ([11]; 63 g ai/ha): 0 | Pre-emerge Herbicidal Activity DIGSA ([11]; 250 g ai/ha): 0 | Pre-emerge Herbicidal Activity RICE ([12]; 63 g ai/ha): 0 | Pre-emerge Herbicidal Activity RICE ([12]; 250 g ai/ha): 15 | Pre-emerge Herbicidal Activity CORN ([13]; 63 g ai/ha): 0 | Pre-emerge Herbicidal Activity CORN ([13]; 250 g ai/ha): 0 | phytotoxicity rating CHEAL ([14]; 63 g ai/ha): 70 | phytotoxicity rating CHEAL ([14]; 250 g ai/ha): 90 | phytotoxicity rating SORHA ([15]; 63 g ai/ha): 0 | phytotoxicity rating SORHA ([15]; 250 g ai/ha): 10 | phytotoxicity rating IPOHE ([16]; 63 g ai/ha): 60 | phytotoxicity rating IPOHE ([16]; 250 g ai/ha): 80 | phytotoxicity rating SETVI ([17]; 63 g ai/ha): 10 | phytotoxicity rating SETVI ([17]; 250 g ai/ha): 30 | phytotoxicity rating AMARE ([18]; 63 g ai/ha, rating scale 0-100 (0 no damage, 100 complete death)): 80 | phytotoxicity rating AMARE [18, 23]: 100 | phytotoxicity rating ABUTH ([19]; 63 g ai/ha): 100 | phytotoxicity rating ABUTH ([19]; 250 g ai/ha): 100 | phytotoxicity rating ECHCG ([20]; 63 g ai/ha): 0 | phytotoxicity rating ECHCG ([20]; 250 g ai/ha): 20 | phytotoxicity rating CASOB ([21]; 63 g ai/ha): 50 | phytotoxicity rating CASOB ([21]; 250 g ai/ha): 50 | phytotoxicity rating DIGSA ([22]; 63 g ai/ha): 0 | phytotoxicity rating DIGSA ([22]; 250 g ai/ha): 20
